Laboratory results: ChEMBL document CHEMBL4715855, “N-phenyl ureidobenzenesulfonates, a novel class of promising human dihydroorotate dehydrogenase inhibitors” (Bioorg Med Chem, 2020)

Assays:
Assay type in all cases: functional, cell-based
NCI-H23 = experiment: Antiproliferative activity against human NCI-H23 cells assessed as cell growth inhibition measured after 48 hrs by sulforhodamine B assay; settings: NCI-H23, 48 h
OVCAR-5 = experiment: Antiproliferative activity against human OVCAR-5 cells assessed as cell growth inhibition measured after 48 hrs by sulforhodamine B assay; settings: OVCAR-5, 48 h
786-0 = experiment: Antiproliferative activity against human 786-0 cells assessed as cell growth inhibition measured after 48 hrs by sulforhodamine B assay; settings: 786-0, 48 h
NCI-H460 = experiment: Antiproliferative activity against human NCI-H460 cells assessed as cell growth inhibition measured after 48 hrs by sulforhodamine B assay; settings: NCI-H460, 48 h
NCI-H522 = experiment: Antiproliferative activity against human NCI-H522 cells assessed as cell growth inhibition measured after 48 hrs by sulforhodamine B assay; settings: NCI-H522, 48 h
HCT-116 = experiment: Antiproliferative activity against human HCT-116 cells assessed as cell growth inhibition measured after 48 hrs by sulforhodamine B assay; settings: HCT-116, 48 h
HT-29 = experiment: Antiproliferative activity against human HT-29 cells assessed as cell growth inhibition measured after 48 hrs by SRB assay; settings: HT-29, 48 h
SK-MEL-28 = experiment: Antiproliferative activity against human SK-MEL-28 cells assessed as cell growth inhibition measured after 48 hrs by sulforhodamine B assay; settings: SK-MEL-28, 48 h
M21 [1] = experiment: Antiproliferative activity against human M21 cells assessed as cell growth inhibition measured after 48 hrs in presence of uridine by SRB assay; settings: M21, 48 h
ACHN = experiment: Antiproliferative activity against human ACHN cells assessed as cell growth inhibition measured after 48 hrs by sulforhodamine B assay
[2] = system: Panel leukemia (Carcinoma cell lines); experiment: Antiproliferative activity against human Panel leukemia (Carcinoma cell lines) assessed as cell growth inhibition measured after 48 hrs by SRB assay
OVCAR-4 = experiment: Antiproliferative activity against human OVCAR-4 cells assessed as cell growth inhibition measured after 48 hrs by sulforhodamine B assay; settings: OVCAR-4, 48 h
[3] = system: Panel NCI-60 (60 carcinoma cell lines); experiment: Antiproliferative activity against human Panel NCI-60 (60 carcinoma cell lines) assessed as cell growth inhibition measured after 48 hrs by SRB assay
U-251 = experiment: Antiproliferative activity against human U-251 cells assessed as cell growth inhibition measured after 48 hrs by sulforhodamine B assay; settings: U-251, 48 h
MDA-MB-231 = experiment: Antiproliferative activity against human MDA-MB-231/ATCC cells assessed as cell growth inhibition measured after 48 hrs by sulforhodamine B assay; settings: MDA-MB-231, 48 h
SK-OV-3 = experiment: Antiproliferative activity against human SK-OV-3 cells assessed as cell growth inhibition measured after 48 hrs by sulforhodamine B assay; settings: SK-OV-3, 48 h
UO-31 = experiment: Antiproliferative activity against human UO-31 cells assessed as cell growth inhibition measured after 48 hrs by sulforhodamine B assay; settings: UO-31, 48 h
TK-10 = experiment: Antiproliferative activity against human TK-10 cells assessed as cell growth inhibition measured after 48 hrs by sulforhodamine B assay; settings: TK-10, 48 h
HCT-15 = experiment: Antiproliferative activity against human HCT-15 cells assessed as cell growth inhibition measured after 48 hrs by sulforhodamine B assay; settings: HCT-15, 48 h
M21 [4] = experiment: Antiproliferative activity against human M21 cells assessed as cell growth inhibition measured after 48 hrs by SRB assay; settings: M21, 48 h
NCI-H226 = experiment: Antiproliferative activity against human NCI-H226 cells assessed as cell growth inhibition measured after 48 hrs by sulforhodamine B assay; settings: NCI-H226, 48 h
OVCAR-8 = experiment: Antiproliferative activity against human OVCAR-8 cells assessed as cell growth inhibition measured after 48 hrs by sulforhodamine B assay; settings: OVCAR-8, 48 h
[5] = system: Panel colon (Carcinoma cell lines); experiment: Antiproliferative activity against human Panel colon (Carcinoma cell lines) assessed as cell growth inhibition measured after 48 hrs by SRB assay
LOX IMVI = experiment: Antiproliferative activity against human LOX IMVI cells assessed as cell growth inhibition measured after 48 hrs by sulforhodamine B assay
MDA-MB-435 = experiment: Antiproliferative activity against human MDA-MB-435 cells assessed as cell growth inhibition measured after 48 hrs by sulforhodamine B assay; settings: MDA-MB-435, 48 h

SMILES | IC50 (NCI-H23) [nM] | IC50 (OVCAR-5) [nM] | IC50 (786-0) [nM] | IC50 (NCI-H460) [nM] | IC50 (NCI-H522) [nM] | IC50 (HCT-116) [nM] | IC50 (HT-29; read-out: IC50) [nM] | IC50 (HT-29; read-out: pIC50 (converted)) [nM] | IC50 (SK-MEL-28) [nM] | IC50 (M21 [1]) [nM] | IC50 (ACHN) [nM] | IC50 (OVCAR-4) [nM] | IC50 (U-251) [nM] | IC50 (MDA-MB-231) [nM] | IC50 (SK-OV-3) [nM] | IC50 (UO-31) [nM] | IC50 (TK-10) [nM] | IC50 (HCT-15) [nM] | IC50 (M21 [4]) [nM] | IC50 (NCI-H226) [nM] | other results
CCNC(=O)Nc1ccc(S(=O)(=O)Oc2ccccc2CC)cc1 | 12900 | 22900 | 9120 | 427 | 1320 | 575 | 990 | 1020 | 11700 | 30000 | 1580 | 22400 | 617 | 11700 | 12600 | 6030 | 13200 | 251 | 3000 | 9330 | IC50 [2]: 810 nM; IC50 [3]: 3500 nM; IC50 (OVCAR-8): 851 nM; IC50 [5]: 1500 nM; IC50 (LOX IMVI): 417 nM; IC50 (MDA-MB-435): 4470 nM
Cc1c(-c2ccc(-c3ccccc3F)cc2)nc2ccc(F)cc2c1C(=O)O [BREQUINAR] | 21400 | 38900 | 195 | 129 | 2000 | 87.1 | 590 | 372 | 10000 | 25000 | 151 | 2750 | 195 | 3630 | 16200 | 1150 | 16200 | 56.2 | 570 | 19500 | IC50 (OVCAR-8): 324 nM; IC50 (LOX IMVI): 93.3 nM; IC50 (MDA-MB-435): 372 nM
